Where “and” joins values, the source holds several entries; their conditions need not be identical. Equal entries are not always repeated.

For data set [1], the system named is senile plaques and neurofibrillary tangles. Briefly: In vitro autoradiographic binding to triple transgenic mouse sagittal brain slices. Also on record: species or system triple transgenic mice. Conditions: for selectivity of binding to the plaques: triple transgenic mice brain slices. As for the experimental part: (§1) In vitro studies of ^18F-FBM were carried out on coronal and horizontal mice brain slices (both wild-type and Tg 2576), which were obtained on a Leica 1850 cryotome. Mice brain-region slices (hippocampus and frontal cortex of 24-month old wild-type and Tg 2576; 10 μm thick) were preincubated in buffer (0.9% saline) for 10 minutes. Subsequently, the mice brain slices were incubated with ^18F-FBM (6.8 μCi/cc) in 0.9% saline, pH 7.4 at 37° C. for 1 hr. For nonspecific binding, brain slices were treated with 10 μM FDDNP. Slices were washed with cold millipore water, 70% alcohol, 90%, alcohol, 70% alcohol, and water for 2, 1, 1, 1, and 1 min, respectively. The slices were air dried then exposed overnight onto a phosphor screen and read by the Phosphor Autoradiographic Imaging System/Cyclone Storage Phosphor System (Packard Instruments Co). Regions of interest were drawn on various regions of the slices and the extent of binding of ^18F-FBM was computed as DLU/mm^2 using the OptiQuant acquisition and analysis program (Packard Instruments Co).
(§2) Similar experiments were carried out in adjacent slices using ^18F-FDDNP (7.8 μCi/cc) for comparison. For evaluating the amount of plaque present in the brain slices, adjacent brain slices were also stained for the peptide fragment Aβ17-24 which is representative of the amount of Aβ40 and Aβ42 plaque aggregates using reported 4G8 immunostaining methods of UCI-Institute for Brain Aging and Dementia (Head E, Moffat K, Das P, Sarsoza E, Poon W W, Landsberg G, Cotman C W, Muphy M P. (2005). Beta-amyloid deposition and tau phosphorylation in clinically characterized aged cats. Neurobiology of Aging 26(5): 749-763). Beta-amyloid deposition and tau phosphorylation in clinically characterized aged cats. Neurobiology of Aging 26(5): 749-763).
Sagittal brain slices of 18 month old triple transgenic mice were then studied. These mice have been known to have an extensive amount of senile plaques and neurofibrillary tangles accumulation in several regions of the brain. These regions include the hippocampus, cortex, thalamus, brain stem and other regions. Binding of ^18F-FBM and ^18F-FDDNP to 10 micron thick slices of triple transgenic mice brains is depicted in FIG. 3 along with antibody staining for plaques. More specifically, FIG. 3A depicts antibody staining in the hippocampus and frontal cortex regions, which was also confirmed by thioflavin S staining in an adjacent slice (shown in inset in FIG. 3A). […] Regions of the hippocampus and the frontal cortex (arrows pointing) that contain the plaques are clearly evident.
The binding of ^18F-FBM in the various plaque containing regions was also quantitatively evaluated as a ratio plot shown in FIGS. 4A and 4B. Cerebellum and striatum were used as reference regions. […] The ratio between the frontal cortex regions showing plaques was between 6 and 7 while the hippocampus was between 3.5 and 4.5 as can be taken from FIG. 4A. […] On the other hand, in the case of ^18F-FDDNP, the binding ratios with respect to cerebellum were 1.5 and 2.0 as can be taken from FIG. 4B.

Data set [2] concerns the target T1, β-amyloid plaques (Homo sapiens, UniProt P05067). Briefly: In vitro autoradiographic binding to Tg2576 mouse hippocampal brain slices. Also on record: representative of the amount of Aβ40 and Aβ42 plaque aggregates; from tissue; host or cells: hippocampal brain slices of 24-month old Tg2576 transgenic mice; species or system Tg2576 transgenic mice. As to conditions: for ratio of binding in plaque to non-plaque areas within the same slice: 10 μm hippocampal slice of 24-month old Tg2576 mouse. As for the experimental part: as §1, §2
Hippocampal slice of 24-month old transgenic mouse (Tg2576, transgenic mice expressing mutant APP) stained for Aβ17-24 using 4G8 immunostaining confirmed presence of β-amyloid plaques found in Alzheimer's disease (FIGS. 1A and 2A depicting 10 μm thick horizontal hippocampal slice of 24-month old transgenic mouse (Tg2576) stained for Aβ17-24 using 4G8 immunostaining. Arrow indicates amyloid plaques.). Adjacent hippocampal slices radiolabeled with ^18F-FBM and ^18F-FDDNP indicated binding to amyloid plaques and corresponded to the 4G8 stain (FIGS. 1B and 2B depicting adjacent hippocampal slice shown in (A) but radiolabeled with high-specific activity ^18F-FBM or ^18F-FDDNP. Arrow indicates binding of ^18F-FBM or ^18F-FDDNP to the amyloid plaques and corresponds to the 4G8 stain.). The specific binding to amyloid plaques was reduced in the presence of 10 μM FDDNP (FIGS. 1C and 2C; FIG. 1C depicts adjacent hippocampal slice shown in (B) radiolabeled with high-specific activity ^18F-FBM in the presence of 10 μM FDDNP. Specific binding to regions containing plaques is reduced; and FIG. 2C depicts adjacent hippocampal slice in cold FDDNP. Specific binding to plaque regions is reduced). Alcohol was used for washing the medium to remove nonspecific binding. The ratio of binding in plaque to non-plaque areas within the same slice for ^18F-FBM was 2.1 while that for ^18F-FDDNP was 1.4; and in the presence of 10 μM FDDNP, these ratios went down to 1.6 and 1.2, respectively.

The nature of data set [3]: Relative lipophilicity from reverse-phase HPLC elution order. As to conditions: elutes first. It counts as physicochemical. The procedure:
For the radiosynthesis step, high specific activity ^18F-fluoride (approximately 100 milliCurie) was produced in the MC-17 cyclotron. Fluorine-18 radioactivity count was measured in a Capintec dose calibrator, while low-level counts were measured out in a well-counter (Cobra Quantum, Packard Instruments Co). Direct radiolabeling of the tosylate precursor was done by using ^18F-fluoride in a solution of 19 mg of Kryptofix 2.2.2 and 0.75 mg potassium carbonate in acetonitrile. The mixture was heated at 85° C. for 20 minutes. After cooling, the mixture was transferred onto a neutral alumina Sep-Pak Cartridge to remove unreacted ^18F-fluoride. Chromatographic separations were preformed on semi-preparative reverse-phase C18 column (length=[…], ID=4.6 mm) using the Gilson high performance liquid chromatography (HPLC) systems. Decay-corrected radiochemical yield was approx. 20%. Retention time of ^18F-FBM was 14 mins compared to 15.7 mins for ^18F-FDDNP (for separation protocol, see e.g., Agdeppa E D et al. (2001) Binding Characteristics of Radiofluorinated 6-Dialkylamino-2-Naphthylethylidene Derivatives as Positron Emission Tomography Imaging Probes for Beta-Amyloid Plaques in Alzheimer's Disease. The Journal of Neuroscience 21, 1-5). ^18F-FBM was collected and prepared for in vitro binding studies. […]

Data set [4] deals with T1, β-amyloid plaques. In words: In vitro autoradiographic binding of 18F-FPCUR to transgenic mice brain slices. Also on record: from tissue; host or cells: sagittal brain sections of Tg 2576 and 3×Tg transgenic mice, 1 to 24 months; species or system transgenic mice (Tg 2576 and 3×Tg). The procedure: Preliminary binding to rat brain slices of ^18F-fluoropropyl curcumin was carried out at 37° C. in Tris buffer, 50 mM, pH 7.4 for one hour, and further testing of ^18F-FPCUR for binding to β-amyloid plaques was carried out transgenic mice brains. […] Brain slices were pre-incubated for 10 mins in incubation buffer, 0.1 M Tris, 0.1 M NaCl, 0.5% Tween and 0.1% BSA, pH 7.4. Incubation was carried out in 0.1 M Tris, 0.1 M NaCl, 0.5% Tween and 0.1% BSA, pH 7.4 with ^18F-FPCUR (3 μCi/cc) at 37° C. for 1 hr. […] Slices were washed with cold buffer, 2×2 min, rinsed with cold water and air dried. Autoradiograms were obtained of various slices and binding of ^18F-FPCUR was quantitated using Optiquant Image analysis program. […] For evaluating the amount of plaque present in the brain slices, adjacent brain slices were also stained using reported immunostaining methods.

T1 sequence (P05067 672-713 limits assumed): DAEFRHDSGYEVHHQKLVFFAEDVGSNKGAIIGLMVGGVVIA

For `CC(/C=C/c1ccc(N(C)CC[18F])cc1)=C(C#N)C#N` [18F-FBM, 4′-[(2-[^18F]fluoroethyl)(methyl)amino]-4-phenyl-3-buten-2-malonitrile], the “selectivity of binding to the plaques” value in data set [1] is reported as “selective binding”. The “ratio of binding in plaque to non-plaque areas within the same slice” value was 1.6 in data set [2] (in the presence of 10 μM FDDNP) and 2.1 in data set [2] (no competitor). Moreover, the “specific binding to amyloid plaque regions compared to 18F-FDDNP” value in data set [2] (Tg2576 hippocampal slices) is listed as “higher specific binding”. Further, the “lipophilicity relative to 18F-FDDNP” value in data set [3] is given as “less lipophilic”.
With `CC(=C(C#N)C#N)c1ccc2cc(N(C)CC[18F])ccc2c1` [18F-FDDNP, 2-(1-{6-[(2-[^18F]fluoroethyl)(methyl)amino]-2-naphtyl}ethylidene)malonitrile], in data set [1] (18 month old triple transgenic mice, FIG. 4B), the “binding ratios with respect to cerebellum” value is 1.5 and 2.0. In data set [1], the “selectivity of binding to the plaques” value was “less selective”. Moreover, in data set [1] (triple transgenic mice, FIG. 3D), the “binding in the cerebellum (no significant amount of plaques)” value was “significant amount of binding”. Also, the figures for the “ratio of binding in plaque to non-plaque areas within the same slice” value in data set [2] (in the presence of 10 μM FDDNP) and in data set [2] (no competitor) were 1.2 and 1.4, respectively.
With `COc1cc(/C=C/C(=O)CC(=O)/C=C/c2ccc(OCCC[18F])c(OC)c2)ccc1O` [18F-FPCUR, ^18F-fluoropropylcurcumin], in data set [4] (FIG. 7), the “binding in the cerebellum (CB)” value is recorded as “little binding”. For the same compound, the “binding in older transgenic mice” value in data set [4] (older transgenic mice) was “Increased binding”.
As for `COc1cc(/C=C/C(=O)CC(=O)/C=C/c2ccc(O)c(OC)c2)ccc1O` [Curcumin], the “displacement of 18F-FPCUR binding by competitor” value in data set [4] (10 μM competitor) is recorded as “displaced”.
On to `CC(C=Cc1ccc(N(C)CCF)cc1)=C(C#N)C#N` [FBM], for which the “effect of competitor on binding of 18F-FDDNP in the hippocampus” value in data set [1] (FBM (1 mM), FIG. 3F) is on record as “reduced”.
With `CC(=C(C#N)C#N)c1ccc2cc(N(C)CCF)ccc2c1` [FDDNP], the “effect of competitor on selective binding of 18F-FBM to plaque regions” value in data set [1] (1 μM FDDNP, FIG. 3E) is given as “significantly reduced”.

Source of the values: patent US7737183B2, “β-amyloid and neurofibrillary tangle imaging agents” (The Regents of the University of California, priority 2006, dated 2010).
